From PMC6196238, “Novobiocin, a Newly Found TRPV1 Inhibitor, Attenuates the Expression of TRPV1 in Rat Intestine and Intestinal Epithelial Cell Line IEC-6” (Frontiers in Pharmacology, 2018) come the findings set out here.

Data set [1] deals with IEC-6/TRPV1- cells. The data set is described as follows: LDH release assay (cell membrane integrity). On the technique in general: LDH leaks from cells whose membrane has failed.
Description: (§4) The transfected cells were plated in 12-well plates. […] The cells were centrifuged at 1000 g for 5 min. Next, 50 μL of supernatants were aspirated and the rest of supernatants were discarded. The cells were washed twice with deionized water and then lysed by ultrasonic wave cracker. And then cell lysate and supernatants were analyzed by using LDH Release Assay Kit, according to the manufacturer’s instructions.
Data set [2] has as its system IEC-6/TRPV1+ cells. The data set is described as follows: MTT cell viability assay. The note with it: for Cell Survival: IEC-6/TRPV1+. How it is done:
(§1) The rat intestinal epithelial cell line IEC-6, purchased from Kunming Institute of Zoology. CAS, was cultured in Dulbecco’s Modified Eagle’s Medium (DMEM) (Gibco, Grand Island, NY, United States) supplemented with 10% fetal bovine serum (FBS; Gibco) at 37°C in a humidified atmosphere of 5% CO2.
(§2) The plasmid pENTER containing the TRPV1 coding sequence NM_080704 was used as template in a PCR with the following primers: 5′-[…]-3′ (forward) and 5′-[…] (reverse). And synthetic small interfering RNA (siRNA) specific for rat TRPV1 (TRPV1-siRNA) was purchased from Vigene Bioscience (Rockville, MD, United States) with the following sequences: 5′-[…]-3′ (forward) and 5′-[…]-3′ (reverse) for TRPV1-siRNA. The transfecting process was conducted by using the lipofectamin® 3000 transfection reagent (Invitrogen^TM, Carlsbad, CA, United States), according to the manufacturer’s protocol.
(§3) The transfected cells were plated in 96-well plates. […] Optical density at 490 nm was used to evaluate cell viability in 96-well plates.
Background: Tetrazolium assays rely on reduction of a dye to a coloured formazan, in cell work by metabolically active cells.

Data set [3] concerns IEC-6/TRPV1- cells. The experiment in a line: MTT cell viability assay. How it is done: as §1, §2, §3
The nature of the next data set: in vivo. As to conditions: SD, rat, po, 10 mg. The protocol:
Blood samples were collected into heparinized tubes before and at 30, 60, 120, 180, 210, 240, 270, 330, 390, and 720 min after administration. Blood samples were immediately centrifuged at 4000 g (4°C) for 10 min to obtain plasma. The plasma samples were stored at -80°C until LC-MS/MS analysis.
The plasma samples and protein sample with 100 μL were extracted with 400 μL of methanol involving IS (verapamil 50 ng⋅mL^-1) by vortex-mix for 1 min, ultrasonic extraction for 1 h, and then centrifugation for 30 min at 15000 g. The supernatant was transferred into a borosilicate glass and 2 μL was subjected to LC-MS/MS analysis.
The LC-MS/MS system consisted of Agilent 6460 Triple Quadrupole LC/MS systems via an ESI interface. The samples were separated on an Agilent ZORBAX SB-C18 column (3.5 μm, 2.1 mm × 150 mm) and the column temperature was maintained at 30°C. The mobile phase consisted of acetonitrile and water contains 0.1% formic acid (70:30, v/v). The flow rate was 0.2 mL⋅min^-1. The ion source was an electrospray ionization interface in the positive mode. […] Other parameters were as follows: spray voltage, 4.0 kV; capillary temperature, 350°C; gas flow, 10 L⋅min^-1.

For data set [4], the system named is IEC-6/TRPV1+ cells. The experiment in a line: LDH release assay (cell membrane integrity). The note with it: for LDH release: IEC-6/TRPV1+; for LDH release compared with the control: NOVO 2.5, 5, 10 μM, CAP 25 μM, RR 10 μM, SB-705498 0.1 μM, 12 and 24 h.
Description: as §4
Data set [5] relates to rat intestine (jejunum, ileum, colon). The experiment in a line: Ussing chamber intestinal permeability of NOVO. As to conditions: NOVO in combination with 10 μM RR; Figure 1. The data set is classed as in vitro ADME. The protocol: The intestinal permeability of CAP in vitro was performed using Ussing chamber. […] NOVO was also prepared in HEPES buffer to yield final concentration at 5, 10, 25, 50, 100, and 200 μM. Animal intestinal segments for the permeability study were prepared in accordance with the experimental method as described previously ([Yodoya et al., 1994]; [Wallon et al., 2005]; [Duan et al., 2013]). Briefly, male SD rats, weighting 240–260 g, were fasted for 18 h before each experiment and anesthetized by injecting 10 % chloral hydrate anesthesia (i.p.). Different portions of the rat intestine were excised and flushed with HEPES buffer, including jejunum (after the first 5 cm of the top of small intestine), ileum (the distal part of small intestine) and colon (proximal to cecal-colonic junction), and incubated in the ice-cold HEPES buffer. Next, 3–4 cm of the intestine was clipped, and the serosa was removed rapidly on an ice-cold glass. The intestinal segments were fixed in the Ussing chamber. Finally, 7 mL of HEPES buffer was added to the receiving side while an equal volume of drug solution to the dosing side. All the chambers were maintained at 37°C by using a warm water-circulating pump and a mixture of 95% O2 and 5% CO2 aerated to ensure the activity of the membrane. […]

For data set [6] the test system is unchanged. The data set is described as follows: Ussing chamber intestinal permeability of CAP. The data set is classed as in vitro ADME. The note with it: CAP + 10 μM inhibitor; for fold-inhibition factor of CAP Papp: vs CAP only. The protocol: NOVO was also prepared in HEPES buffer to yield final concentration at 5, 10, 25, 50, 100, and 200 μM. […] Different portions of the rat intestine were excised and flushed with HEPES buffer, including jejunum (after the first 5 cm of the top of small intestine), ileum (the distal part of small intestine) and colon (proximal to cecal-colonic junction), and incubated in the ice-cold HEPES buffer. Next, 3–4 cm of the intestine was clipped, and the serosa was removed rapidly on an ice-cold glass. The intestinal segments were fixed in the Ussing chamber. Finally, 7 mL of HEPES buffer was added to the receiving side while an equal volume of drug solution to the dosing side. […] All the samples were kept at -20°C till HPLC analysis.
In brief, samples were injected into a C18 column (3.5 μm, 2.1 mm × 100 mm). An aliquot of 20 μL of sample solutions were injected.

The subject of data set [7] is IEC-6/TRPV1- cells. The data set is described as follows: CAP accumulation assay. As to conditions: 2.5-10 μM NOVO, 10 μM RR, 0.1 μM SB-705498, Figure 3D. The data set is classed as cell-based, rat. The protocol:
The transfected cells were grown to 80% confluence in 12-well plates. The experiment was divided into three parts: […] SB-705498, RR or NOVO was then added to the medium for another 15, 30, and 60 min. […] After incubation, the medium was removed, and cell layers were washed three times with ice-cold PBS and then extracted with Membrane Protein Extraction Kit (Thermo Fisher Scientific Inc, Rockford, IL, United States), according to the manufacturer’s protocol. The cytosolic protein extracts were stored at -80°C until LC-MS/MS analysis. The plasma samples and protein sample with 100 μL were extracted with 400 μL of methanol involving IS (verapamil 50 ng⋅mL^-1) by vortex-mix for 1 min, ultrasonic extraction for 1 h, and then centrifugation for 30 min at 15000 g. The supernatant was transferred into a borosilicate glass and 2 μL was subjected to LC-MS/MS analysis. The LC-MS/MS system consisted of Agilent 6460 Triple Quadrupole LC/MS systems via an ESI interface. The samples were separated on an Agilent ZORBAX SB-C18 column (3.5 μm, 2.1 mm × 150 mm) and the column temperature was maintained at 30°C. The mobile phase consisted of acetonitrile and water contains 0.1% formic acid (70:30, v/v). The flow rate was 0.2 mL⋅min^-1. The ion source was an electrospray ionization interface in the positive mode. […] Other parameters were as follows: spray voltage, 4.0 kV; capillary temperature, 350°C; gas flow, 10 L⋅min^-1.

Regarding `COc1cc(CNC(=O)CCCC/C=C/C(C)C)ccc1O` [CAP, capsaicin], the LDH release in the data set with IEC-6/TRPV1- cells [1] (25 μM, 12 h) was 0.680 ± 0.205 gprot⋅mL ^-1; in the data set with IEC-6/TRPV1- cells [1] (25 μM, 24 h) it was 0.462 ± 0.101 gprot⋅mL ^-1; in the data set with IEC-6/TRPV1+ cells [4] (25 μM, 12 h), 0.380 ± 0.165 gprot⋅mL ^-1; in the data set on IEC-6/TRPV1+ cells [4] (25 μM, 24 h), 0.311 ± 0.051 gprot⋅mL ^-1. Also, the “Cell Survival” value in the data set with IEC-6/TRPV1+ cells [2] (12.5 μM, incubation 12 h) turned out to be 1.029 ± 0.180; with IEC-6/TRPV1+ cells [2] (12.5 μM, incubation 24 h), 0.916 ± 0.163; in the data set on IEC-6/TRPV1+ cells [2] (25 μM, incubation 12 h) it was 0.896 ± 0.199; with IEC-6/TRPV1+ cells [2] (25 μM, incubation 24 h) it was 0.822 ± 0.102; in the data set with IEC-6/TRPV1+ cells [2] (50 μM, incubation 12 h), 0.820 ± 0.201; with IEC-6/TRPV1+ cells [2] (50 μM, incubation 24 h) it was 0.739 ± 0.012. The “Cell Survival” value in the data set with IEC-6/TRPV1- cells [3] (12.5 μM, incubation 12 h) was 0.969 ± 0.310; in the data set on IEC-6/TRPV1- cells [3] (12.5 μM, incubation 24 h) it was 0.934 ± 0.111; in the data set on IEC-6/TRPV1- cells [3] (25 μM, incubation 12 h) it was 0.851 ± 0.216; in the data set with IEC-6/TRPV1- cells [3] (25 μM, incubation 24 h) it was 0.878 ± 0.096; in the data set with IEC-6/TRPV1- cells [3] (50 μM, incubation 12 h), 0.792 ± 0.316; in the data set on IEC-6/TRPV1- cells [3] (50 μM, incubation 24 h), 0.801 ± 0.171. The “concentration up to which more than 80% of the cells were viable” value with IEC-6/TRPV1+ cells [2] (both IEC-6/TRPV1+ and IEC-6/TRPV1-, incubated 24 h) turned out to be 25 µM. For the same compound, the AUC(0-t) – broadly, exposure summed from dosing to a finite time, without extrapolation to infinity – in the data set “in vivo” was 230 ng·h/mL. Further, in “in vivo”, the concentration peaked (Cmax) at 52.2 ± 8.92 ng/mL. Also, the Tmax (commonly the time from dosing to the highest level) is 3.9 h in “in vivo” (Tmax of CAP) and about 4 h in “in vivo” (peak time (Tmax) of CAP). Also, the “LDH release compared with the control” value in the data set with IEC-6/TRPV1+ cells [4] is reported as “not any significant difference”.

For `N.N.N.N.N.N.N.N.N.N.N.N.N.N.[Cl-].[Cl-].[Cl-].[Cl-].[Cl-].[Cl-].[O-2].[O-2].[Ru+3].[Ru+3].[Ru+4]` [RR, ruthenium red], the LDH release came out at 0.552 ± 0.039 gprot⋅mL ^-1 in the data set on IEC-6/TRPV1- cells [1] (10 μM, 12 h); 0.501 ± 0.094 gprot⋅mL ^-1 with IEC-6/TRPV1- cells [1] (10 μM, 24 h); 0.406 ± 0.056 gprot⋅mL ^-1 in the data set with IEC-6/TRPV1+ cells [4] (10 μM, 12 h); 0.301 ± 0.061 gprot⋅mL ^-1 in the data set with IEC-6/TRPV1+ cells [4] (10 μM, 24 h). For the same compound, the “effect on permeability of NOVO across intestinal segments” value in data set [5] is reported as “no change”. Besides, the “Papp of CAP” value in data set [6] (colon) is given as 12.18 ± 2.90 ×10^-6, cm⋅s^-1; in data set [6] (ileum), 5.06 ± 0.57 ×10^-6, cm⋅s^-1; in data set [6] (jejunum) it was 2.54 ± 0.40 ×10^-6, cm⋅s^-1. Further, the “fold-inhibition factor of CAP Papp” value in data set [6] (colon) amounted to 1.64 fold; in data set [6] (ileum) it was 1.46 fold; in data set [6] (jejunum), 1.23 fold. For the same compound, the “accumulation of CAP, co-incubation” value in the data set with IEC-6/TRPV1- cells [7] was “did not change”. For the same compound, the “LDH release compared with the control” value in the data set with IEC-6/TRPV1+ cells [4] is on record as “not any significant difference”.
